# In patent US20080125496A1, “ANTIMICROBIAL FLAVOR AND ORAL CARE COMPOSITION CONTAINING THE SAME” (TAKASAGO INTERNATIONAL CORPORATION, priority 2001, published 2008):
# Read-outs that look alike come from different tables or passages of the source.
# Key:
# Format in all cases: cell-based
# [1] = tested on: Streptococcus mutans JCM 5175; test: MIC by agar plate dilution method, Su-1; details: for MIC: Streptococcus mutans, read-out: MIC Su-1 (caries-related bacteria)
# Protocol: (§1) The minimum inhibitory activities of the antimicrobial flavors of the invention on anaerobic oral bacteria were measured by an agar plate dilution method.
# (§2) All the test strains were obtained from Riken (The Institute of Physical and Chemical Research). The names and abbreviations of the strains are shown in Table 1 below (The abbreviations are used in the following description).
# (§3) Each test microorganism kept frozen (−80° C.) in glycerol at a concentration of 25% was thawed. A 100 μl portion of the suspension was inoculated into 10 ml of a liquid medium. A Gifu university anaerobic medium (GAM) (Nissui Pharmaceutical Co., Ltd) having added thereto Hemin (Tokyo Kasei) and Menadione (Sigma) was used for Su-1 and Fn-1. Schaedler Broth (BBL) having added thereto Hemin and Menadione was used for the other strains. The culture was anaerobically incubated at 37° C. for 72 hours by using BBL Gas Pack Anaerobic System. After the cultivation, the microbial cell suspension of Su-1 was 10-fold diluted to prepare an inoculum. The cultures of Fn-1 and Pg-1 were used as such as an inoculum. The cultures of Pt-1, Aa-1, and Av-1 were subjected to centrifugation, and the separated microbial cells were suspended in 2 ml of sterilized physiological saline to prepare the respective inoculums.
# (§4) An agar medium prepared by adding 2% agar (Difco), Hemin, and Menadione to Trypticase Soy Broth (BBL) was used. A test sample (antimicrobial flavor) was dissolved in ethanol to prepare 2-fold serial dilutions. To 10 ml of the agar medium was added 100 μl of each dilution and stirred well. The agar medium was transferred to a petri dish (diameter: 9 cm) and solidified at room temperature. The solidified agar medium was inoculated with 5 μl of the inoculum by means of a multipoint inoculator (Microplanter MIT-P27, supplied by Sakuma Seisakusho), followed by culturing at 37° C. for 72 hours under anaerobic conditions. The growth of the test microorganism was compared with a blank petri dish (the agar medium to which 100 μl of ethanol had been added). The lowest sample concentration that inhibited growth was taken as MIC (ppm).
# (§5) Antimicrobial activities (MIC; ppm) of the aromahygiene base (AHB) prepared in (1) and the antimicrobial flavor compositions prepared in (2) (Examples 2-1 to 2-3) and Comparative Examples 2-1 to 2-3 were measured in the same manner as in Example 1 (2).
# [2] = tested on: Actinomyces naeslundii JCM 8350; test: MIC by agar plate dilution method, Aa-1; details: for MIC: Actinomyces naeslundii, read-out: MIC Aa-1 (caries-related bacteria)
# Protocol: as §1, §2, §3, §4, §5
# [3] = tested on: Actinomyces viscosus JCM 8352; test: MIC by agar plate dilution method, Av-1; details: for MIC: Actinomyces viscosus, read-out: MIC Av-1 (caries-related bacteria)
# Protocol: as §1, §2, §3, §4, §5
# [4] = tested on: Fusobacterium nucleatum JCM 6328; test: MIC by agar plate dilution method, Fn-1; details: for MIC: Fusobacterium nucleatum, read-out: MIC Fn-1 (paradentosis-related bacteria)
# Protocol: as §1, §2, §3, §4, §5
# [5] = tested on: Porphyromonas gingivalis JCM 8525; test: MIC by agar plate dilution method, Pg-1; details: for MIC: Porphyromonas gingivalis, read-out: MIC Pg-1 (paradentosis-related bacteria; head Fg-1 in Tables 2 and 3)
# Protocol: as §1, §2, §3, §4, §5
# [6] = tested on: Prevotella intermedia JCM 6322; test: MIC by agar plate dilution method, Pt-1; details: for MIC: Prevotella intermedia, read-out: MIC Pt-1 (paradentosis-related bacteria)
# Protocol: as §1, §2, §3, §4, §5
# [7] = JCM5175, agar medium, 37° C., 72 hours, anaerobic conditions
# [8] = JCM8350, agar medium, 37° C., 72 hours, anaerobic conditions
# [9] = JCM8352, agar medium, 37° C., 72 hours, anaerobic conditions
# [10] = JCM6328, agar medium, 37° C., 72 hours, anaerobic conditions
# [11] = JCM8525, agar medium, 37° C., 72 hours, anaerobic conditions
# [12] = JCM6322, agar medium, 37° C., 72 hours, anaerobic conditions
# [13] = agar medium, 37° C., 72 hours, anaerobic conditions
Structure (SMILES),"MIC [1, 7] [µg/mL]","MIC [2, 8] [µg/mL]","MIC [3, 9] [µg/mL]","MIC [4, 10] [µg/mL]","MIC [5, 11] [µg/mL]","MIC [6, 12] [µg/mL]","MIC Su-1 (caries-related bacteria) [1, 13] [ppm]","MIC Aa-1 (caries-related bacteria) [2, 13] [ppm]","MIC Av-1 (caries-related bacteria) [3, 13] [ppm]","MIC Fn-1 (paradentosis-related bacteria) [4, 13] [ppm]","MIC Pg-1 (paradentosis-related bacteria; head Fg-1 in Tables 2 and 3) [5, 13] [ppm]",also measured
CCCCCCCCCO [1-nonanol],1000,500,500,500,250,250,,,,,,
CCCCCCCCC(C)C=O (stereo not shown) [2-Methyl decanal],500,250,500,500,62.5,125,,,,,,
CCCCCCCCCC(C)C=O (stereo not shown) [2-Methyl undecanal],250,125,125,125,62.5,62.5,,,,,,
CCCCCCCCC=CCC=O [3-Dodecenal],1000,500,500,250,62.5,31.3,,,,,,
"CC1CCC(C(C)C)C(OCC(O)CO)C1 (stereo not shown) [3-Menthoxypropane-1,2-diol]",1000,500,62.5,1000,250,,,,,,,
O=C1CCCC=CCCCCCCCCCC1 [5-cyclohexadecen-1-one],> 1000,> 1000,> 1000,> 1000,15.6,31.3,,,,,,
C=CCCCCCCCCO [9-decen-1-ol],1000,250,250,250,125,62.5,,,,,,
C=CCCCCCCCCCO [10-undecen-1-ol],250,125,125,125,31.3,31.3,,,,,,
CC(=O)C1=C(C)[C@@H]2C[C@@]3(C1)[C@H](C)CC[C@H]3C2(C)C [Acetyl cedrene],,,,,,,250,31.3,31.3,500,15.6,
CC1(C)CCC[C@]2(C)[C@H]3CCO[C@]3(C)CC[C@@H]12 [Ambroxan],,,,,,,>1000,>1000,>1000,>1000,31.3,"MIC Pt-1 (paradentosis-related bacteria) [6, 13]: 31.3 ppm"
CC/C(=C\CC1CC=C(C)C1(C)C)CO (stereo not shown) [Bacdanol],,,,,,,125,125,62.5,62.5,31.3,
CC1=CCC(CCC(C)CO)C1(C)C (stereo not shown) [Brahmanol],,,,,,,250,125,125,250,31.3,"MIC Pt-1 (paradentosis-related bacteria) [6, 13]: 31.3 ppm"
CC1C(C)(C)C2=C(C(=O)CCC2)C1(C)C (stereo not shown) [Cashmerane],,,,,,,>1000,1000,1000,>1000,250,"MIC Pt-1 (paradentosis-related bacteria) [6, 13]: 250 ppm"
C[C@@H]1CC[C@H]2C(C)(C)[C@H]3C[C@@]12CC[C@@]3(C)O [Cedrol],> 1000,> 1000,> 1000,> 1000,31.3,31.3,,,,,,
CC(=O)O[C@]1(C)CC[C@@]23C[C@@H]1C(C)(C)[C@@H]2CC[C@H]3C [Cedryl acetate],,,,,,,,,,,,"MIC ([1]; JCM5175, 72 h): > 1000 µg/mL; MIC ([2]; JCM8350, 72 h): > 1000 µg/mL; MIC ([3]; JCM8352, 72 h): > 1000 µg/mL; MIC ([4]; JCM6328, 72 h): > 1000 µg/mL; MIC ([5]; JCM8525, 72 h): 31.3 µg/mL; MIC ([6]; JCM6322, 72 h): 62.5 µg/mL"
COC(/C=C/c1ccccc1)OC [Cinnamic aldehyde dimethyl acetal],,,,,,,250,125,250,500,<15.6,"MIC Pt-1 (paradentosis-related bacteria) [6, 13]: 62.5 ppm"
O=C1CCCCCCCCCCCCCCO1 [Cyclopentadecanolide],,,,,,,>1000,>1000,>1000,>1000,<62.5,"MIC Pt-1 (paradentosis-related bacteria) [6, 13]: <62.5 ppm"
O=C1CCCCCCCCCCCCCC1 [Cyclopentadecanone],,,,,,,,,,,,"MIC ([1]; JCM5175, 72 h): > 1000 µg/mL; MIC ([2]; JCM8350, 72 h): > 1000 µg/mL; MIC ([3]; JCM8352, 72 h): > 1000 µg/mL; MIC ([4]; JCM6328, 72 h): > 1000 µg/mL; MIC ([5]; JCM8525, 72 h): < 62.5 µg/mL; MIC ([6]; JCM6322, 72 h): < 62.5 µg/mL"
C=C(C)[C@@H]1CCC2=CC(=O)C[C@@H](C)[C@]2(C)C1 [Nootkatone],1000,62.5,62.5,500,7.8,,,,,,,
C=C(C)[C@@H]1CC=C(CO)CC1 [Perilla alcohol],500,250,500,500,125,,,,,,,
CCCCCCCC/C=C/C=O [Trans-2-undecenal],250,125,125,1000,,,,,,,,
CCCCCCCCCCC=O [Undecanal],1000,500,500,500,125,,,,,,,
